Laboratory results taken from publication PMC11845761, “Intestinal human carboxylesterase 2 (CES2) expression rescues drug metabolism and most metabolic syndrome phenotypes in global Ces2 cluster knockout mice” (Acta Pharmacologica Sinica, 2024).
Marks after values point to notes of the source that are not given here.

Key:
[1] = Tissue concentrations of vinorelbine and deacetylvinorelbine 4 h after oral vinorelbine in CES2-modified mice; assay type: in vivo, mouse; settings: oral vinorelbine 10 mg/kg
Procedure: (§1) For capecitabine 2-h experiments, 6–7 female mice received oral capecitabine (500 mg/kg, 10 μL/g), and tail vein blood samples were collected at 0.125, 0.25, 0.5 and 1 h after drug administration. For the vinorelbine 4-h experiment, 6-7 male mice received vinorelbine intravenously (10 mg/kg, 5 μL/g) or orally (10 mg/kg, 10 μL/g) using a blunt-ended needle. Tail vein blood samples were collected at 0.125, 0.25, 0.5, 1 and 2 h after drug administration. […] At the last time point in each experiment (2 or 4 h), mice were anesthetized with 5% isoflurane and blood was collected by cardiac puncture. […] Plasma was isolated from the blood by centrifugation at 9000 × g for 6 min at 4 °C, and the plasma fraction was collected and stored at −30 °C until analysis.
(§2) Concentrations of capecitabine (and its metabolites) and vinorelbine (and its metabolite) in mouse plasma samples and organ homogenates were determined using two independent validated high-performance liquid chromatography-tandem mass spectrometry assays.
(§3) Pharmacokinetic parameters were calculated by non-compartmental methods using the PK solver software. […] Differences were considered statistically significant when P < 0.05. All data are presented as mean ± SD.

[2] = Tissue concentrations of vinorelbine and deacetylvinorelbine 4 h after i.v. vinorelbine in CES2-modified mice; assay type: in vivo, mouse; settings: i.v. vinorelbine 10 mg/kg
Procedure: as §1, §2, §3

[3] = parameters: method as in PMID 11822766; settings: 24 patients; oral vinorelbine 80 mg/m^2; cited from earlier work

CCC1=C[C@@H]2CN(C1)Cc1c([nH]c3ccccc13)[C@@](C(=O)OC)(c1cc3c(cc1OC)N(C)[C@H]1[C@@](O)(C(=O)OC)[C@H](O)[C@]4(CC)C=CCN5CC[C@]31[C@@H]54)C2 [Deacetylvinorelbine, 4’-O-deacetylvinorelbine]
Ccolon (colon concentration) ([1]; male Ces2^–/–V mice): 8.1 ± 4.8 ng/g | Cliver (liver concentration) ([1]; male Ces2^–/–V mice): 178 ± 110 ng/g | Colon Ratio (x 10^-3) (deacetylvinorelbine /vinorelbine) ([1]; male Ces2^–/–V mice): 13 ± 3.7 x 10^-3 | Liver Ratio (x 10^-3) (deacetylvinorelbine /vinorelbine) ([1]; male Ces2^–/–V mice): 21 ± 7.8 x 10^-3 | Small intestine Ratio (x 10^-3) (deacetylvinorelbine /vinorelbine) ([1]; male Ces2^–/–V mice): 49 ± 15 x 10^-3 | Small intestine contents Ratio (x 10^-3) (deacetylvinorelbine /vinorelbine) ([1]; male Ces2^–/–V mice): 8.4 ± 3.4 x 10^-3 | liver deacetylvinorelbine-to-vinorelbine ratio, fold decrease vs wild-type ([1]; male Ces2^–/–V mice): 238 fold | small intestine tissue deacetylvinorelbine-to-vinorelbine ratio ([1]; male Ces2^–/–V mice): 0.049 ± 0.015 | CSI (small intestine tissue concentration) ([1]; male wild-type mice): 9590 ± 4337 ng/g | CSIC (small intestine contents concentration) ([1]; male wild-type mice): 15491 ± 4320 ng/g | Ccolon (colon concentration) ([1]; male wild-type mice): 369 ± 240 ng/g | Cliver (liver concentration) ([1]; male wild-type mice): 7589 ± 2725 ng/g | Colon Ratio (x 10^-3) (deacetylvinorelbine /vinorelbine) ([1]; male wild-type mice): 1000 ± 390 x 10^-3 | Liver Ratio (x 10^-3) (deacetylvinorelbine /vinorelbine) ([1]; male wild-type mice): 5000 ± 1000 x 10^-3 | Small intestine Ratio (x 10^-3) (deacetylvinorelbine /vinorelbine) ([1]; male wild-type mice): 880 ± 220 x 10^-3 | Small intestine contents Ratio (x 10^-3) (deacetylvinorelbine /vinorelbine) ([1]; male wild-type mice): 220 ± 73 x 10^-3 | liver deacetylvinorelbine-to-vinorelbine ratio ([1]; male wild-type mice): 5.0 ± 1.0 | small intestine tissue deacetylvinorelbine-to-vinorelbine ratio ([1]; male wild-type mice): 0.88 ± 0.22 | CSI (small intestine tissue concentration) ([2]; male Ces2^–/– mice): 87 ± 15 ng/g | CSIC (small intestine contents concentration) ([2]; male Ces2^–/– mice): 291 ± 180 ng/g | Ccolon (colon concentration) ([2]; male Ces2^–/– mice): 58 ± 45 ng/g | Cliver (liver concentration) ([2]; male Ces2^–/– mice): 487 ± 127 ng/g | Colon Ratio (x 10^-3) (deacetylvinorelbine /vinorelbine) ([2]; male Ces2^–/– mice): 9.4 ± 3.8 x 10^-3 | Liver Ratio (x 10^-3) (deacetylvinorelbine /vinorelbine) ([2]; male Ces2^–/– mice): 21 ± 1.9 x 10^-3 | Small intestine Ratio (x 10^-3) (deacetylvinorelbine /vinorelbine) ([2]; male Ces2^–/– mice): 15 ± 1.2 x 10^-3 | Small intestine contents Ratio (x 10^-3) (deacetylvinorelbine /vinorelbine) ([2]; male Ces2^–/– mice): 7.4 ± 1.0 x 10^-3 | liver deacetylvinorelbine-to-vinorelbine ratio ([2]; male Ces2^–/– mice): 0.021 ± 0.002 | small intestine conversion ratio (deacetylvinorelbine-to-vinorelbine) ([2]; male Ces2^–/– mice): 0.015 ± 0.001 | CSI (small intestine tissue concentration) ([2]; male Ces2^–/–A mice): 79 ± 13 ng/g | CSIC (small intestine contents concentration) ([2]; male Ces2^–/–A mice): 400 ± 315 ng/g | Ccolon (colon concentration) ([2]; male Ces2^–/–A mice): 42 ± 43 ng/g | Cliver (liver concentration) ([2]; male Ces2^–/–A mice): 584 ± 157 ng/g | Colon Ratio (x 10^-3) (deacetylvinorelbine /vinorelbine) ([2]; male Ces2^–/–A mice): 7.0 ± 3.7 x 10^-3 | Liver Ratio (x 10^-3) (deacetylvinorelbine /vinorelbine) ([2]; male Ces2^–/–A mice): 25± 7.0 x 10^-3 | Small intestine Ratio (x 10^-3) (deacetylvinorelbine /vinorelbine) ([2]; male Ces2^–/–A mice): 14 ± 1.0 x 10^-3 | Small intestine contents Ratio (x 10^-3) (deacetylvinorelbine /vinorelbine) ([2]; male Ces2^–/–A mice): 8.1 ± 1.1 x 10^-3 | liver deacetylvinorelbine-to-vinorelbine ratio ([2]; male Ces2^–/–A mice): 0.025 ± 0.0070 | small intestine conversion ratio (deacetylvinorelbine-to-vinorelbine) ([2]; male Ces2^–/–A mice): 0.014 ± 0.001 | CSI (small intestine tissue concentration) ([2]; male Ces2^–/–V mice): 134 ± 47***^ ng/g | CSIC (small intestine contents concentration) ([2]; male Ces2^–/–V mice): 511 ± 322 ng/g | Ccolon (colon concentration) ([2]; male Ces2^–/–V mice): 120 ± 45***^ ng/g | Cliver (liver concentration) ([2]; male Ces2^–/–V mice): 513 ± 61 ng/g | Colon Ratio (x 10^-3) (deacetylvinorelbine /vinorelbine) ([2]; male Ces2^–/–V mice): 17 ± 4.7***^^ x 10^-3 | Liver Ratio (x 10^-3) (deacetylvinorelbine /vinorelbine) ([2]; male Ces2^–/–V mice): 22 ± 6.6 x 10^-3 | Small intestine Ratio (x 10^-3) (deacetylvinorelbine /vinorelbine) ([2]; male Ces2^–/–V mice): 17 ± 2.2***^^ x 10^-3 | Small intestine contents Ratio (x 10^-3) (deacetylvinorelbine /vinorelbine) ([2]; male Ces2^–/–V mice): 10 ± 1.0 x 10^-3 | liver deacetylvinorelbine-to-vinorelbine ratio ([2]; male Ces2^–/–V mice): 0.022 ± 0.007 | small intestine conversion ratio (deacetylvinorelbine-to-vinorelbine) ([2]; male Ces2^–/–V mice): 0.017 ± 0.002 | CSI (small intestine tissue concentration) ([2]; male wild-type mice): 2214 ± 605 ng/g | CSIC (small intestine contents concentration) ([2]; male wild-type mice): 27594 ± 13421 ng/g | Ccolon (colon concentration) ([2]; male wild-type mice): 780 ± 199 ng/g | Cliver (liver concentration) ([2]; male wild-type mice): 26773 ± 10517 ng/g | Colon Ratio (x 10^-3) (deacetylvinorelbine /vinorelbine) ([2]; male wild-type mice): 340 ± 70 x 10^-3 | Liver Ratio (x 10^-3) (deacetylvinorelbine /vinorelbine) ([2]; male wild-type mice): 2500 ± 1300 x 10^-3 | Small intestine Ratio (x 10^-3) (deacetylvinorelbine /vinorelbine) ([2]; male wild-type mice): 630 ± 46 x 10^-3 | Small intestine contents Ratio (x 10^-3) (deacetylvinorelbine /vinorelbine) ([2]; male wild-type mice): 1000 ± 270 x 10^-3 | liver deacetylvinorelbine-to-vinorelbine ratio ([2]; male wild-type mice): 2.5 ± 1.3 | small intestine conversion ratio (deacetylvinorelbine-to-vinorelbine) ([2]; male wild-type mice): 0.63 ± 0.05 | plasma Cmax [3]: 9.1 ± 3.3 ng/mL
